PMC5605686, “Ang-(1-7) is an endogenous β-arrestin-biased agonist of the AT1 receptor with protective action in cardiac hypertrophy” (Scientific Reports, 2017)
pKi: −log10 of the molar value. Where two headings read alike, the source gives them in different places.

Tests used:
[1] = tested on: AT1R; assay: BRET assay of β-arrestin 2 recruitment to AT1R-GFP (β-arr2-RLucII); type: cell-based; settings: for β-arr2 recruitment Emax (%): percentage of the maximum values obtained for AngII
Description: (§1) HEK293T cells were cultured in DMEM supplemented with 10% heat-inactivated fetal bovine serum and 100 U/mL penicillin/streptomycin at 37 °C under 5% CO2. Cells were seeded in 100-mm dishes and 48 hours before the experiments, transiently transfected with the AT1R (alone or in combination with BRET-based biosensors). Transient transfections were performed using 25 kDa linear polyethylenimine (PEI – Polysciences, Warrington, PA, USA) at a ratio of 3:1 PEI/DNA. The total amount of transfected DNA was kept constant (10 μg/dish) by the addition of salmon sperm DNA.
(§2) HEK293T cells transiently expressing the AT1R (or AT1R-GFP) and BRET-based biosensors (Gαq-RLucII or Gαi3-RLucII, Gβ1 and Gγ1-GFP10; RLucII-β-arr1-GFP10; RLucII-β-arr2-GFP10; β-arr1-RLucII; β-arr2-RLucII) were washed once with PBS, detached, and seeded in 96-well white plates (OptiPlate – PerkinElmer, Waltham, MA, USA). Following agonist stimulation, cells were incubated at 37 °C and the luciferase substrate (coelenterazine H for BRET1 or coelenterazine 400a for BRET2 – Biotium, Hayward, CA, USA) was added 5 min before reading BRET in a Victor^TM X Light Luminescence microplate reader (PerkinElmer) equipped with different donor/acceptor emission filter sets. The BRET signal was determined as the ratio of light emitted by fluorescently-labeled biosensors, detected with energy acceptor filters (530 ± 20 nm for BRET1 or 515 ± 20 nm for BRET2), and light emitted by RLucII-tagged biosensors, detected with energy donor filters (480 ± 20 nm for BRET[1] or 410 ± 40 nm for BRET2). The specific BRET signal was defined as the difference between the total BRET signals and the one obtained with RLucII alone.

[2] = tested on: isoproterenol-induced cardiac hypertrophy; assay: Isoproterenol-induced cardiac hypertrophy in rats (HW/BW ratio, left ventricular wall thickness); type: in vivo, Wistar rats; settings: 24 μg/kg per hour, osmotic mini-pump, 7 days, concomitantly with isoproterenol
Description: (§3) The isoproterenol-induced cardiac hypertrophy experimental model was chosen aiming to avoid any involvement of the RAS, as it is known that other models such as pressure-overload, SHR, or mRen2 involve RAS components[50],[60],[61]. Cardiac hypertrophy was induced in male, 6 weeks-old Wistar rats by administration of Isoproterenol [(Iso) 2 mg/kg per day, i.p. diluted in saline, for 7 days]. All experimental protocols were performed in accordance with the Brazilian Council for Control of Animal Experimentation - “Conselho Nacional de Controle de Experimentação Animal” (CONCEA), Brazil; and approved by the Animal Ethical Committee from the Ribeirão Preto Medical School, University of São Paulo (CEUA).
Rats receiving Iso were randomly submitted to treatment for 7 days with either vehicle, Ang-(1-7) [24 μg/kg per hour, via ALZET® osmotic minipumps (Durect, Cupertino, CA, USA)], Ang-(1-7) plus Losartan (10 mg/kg per day orally), Ang-(1-7) plus A779 (744 μg/kg per day i.p.), or Ang-(1-7) plus Losartan plus A779 (same doses as described). Doses and administration methods of drugs were based in previously published literature[62]–[66].
Cardiac hypertrophy was confirmed by cardiac mass and histomorphometric analyses. To determine cardiac mass, hearts were removed, dried and weighted. Heart weight (HW) was normalized by the body weight (BW) (HW/BW*1000). For histomorphometric analysis, hearts were cut transversely, fixed in paraformaldehyde (4%) for 24 hours, and kept in ethanol (70%) until dehydration, which consisted in sequential washes with 70, 80, 90 and 100% ethanol. Samples were cleared in xylene and embedded in paraffin. Transversal sections (6 µm) were obtained from the cardiac samples at intervals of 40 µm and stained with hematoxylin and eosin. Images were captured using an Olympus BK 50 microscope (Olympus Corporation of the Americas, Center Valley, PA, USA) equipped with a SPOT RT3 digital camera (Diagnostic Instruments, Inc., Sterling Heights, MI, USA) and measured with ImageJ software (NIH, USA).

[3] = target: T1, AT1R (Homo sapiens, UniProt P30556); assay: BRET-based biosensor assay of Gi3 activation in HEK293T cells expressing AT1R; type: cell-based
T1 construct: expressed in transfected cells; host or cells: HEK293T
T1 sequence (P30556 1-359): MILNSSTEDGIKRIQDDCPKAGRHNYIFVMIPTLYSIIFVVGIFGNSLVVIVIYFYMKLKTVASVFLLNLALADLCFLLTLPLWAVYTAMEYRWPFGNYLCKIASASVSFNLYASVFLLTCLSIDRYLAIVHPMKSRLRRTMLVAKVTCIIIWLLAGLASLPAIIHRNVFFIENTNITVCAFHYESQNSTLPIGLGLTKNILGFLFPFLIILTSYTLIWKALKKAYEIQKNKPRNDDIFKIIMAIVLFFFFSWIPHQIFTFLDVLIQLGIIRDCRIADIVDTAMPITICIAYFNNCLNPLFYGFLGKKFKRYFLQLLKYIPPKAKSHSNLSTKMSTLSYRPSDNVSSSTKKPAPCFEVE
Description: as §1
(§4) HEK293T cells transiently expressing the AT1R (or AT1R-GFP) and BRET-based biosensors (Gαq-RLucII or Gαi3-RLucII, Gβ1 and Gγ1-GFP10; RLucII-β-arr1-GFP10; RLucII-β-arr2-GFP10; β-arr1-RLucII; β-arr2-RLucII) were washed once with PBS, detached, and seeded in 96-well white plates (OptiPlate – PerkinElmer, Waltham, MA, USA). Following agonist stimulation, cells were incubated at 37 °C and the luciferase substrate (coelenterazine H for BRET1 or coelenterazine 400a for BRET2 – Biotium, Hayward, CA, USA) was added 5 min before reading BRET in a Victor^TM X Light Luminescence microplate reader (PerkinElmer) equipped with different donor/acceptor emission filter sets. […]

[4] = target: T1, AT1R; assay: BRET-based biosensor assay of Gq activation (Gαq-RLucII / Gγ1-GFP10) in HEK293T cells expressing AT1R; type: cell-based
Description: as §1, §4

[5] = target: T1, AT1R; assay: Intramolecular BRET assay of β-arrestin 1 conformational changes (RLucII-β-arr1-GFP10); type: cell-based
Description: (§5) Receptor promoted activation of β-arrestin results in a conformational rearrangement that can be monitored by BRET-based double brilliance biosensors assessing changes in BRET between RLucII and GFP10 fused respectively to the N- and C-termini of β-arrestins[35]–[37]. Therefore, to assess whether the recruitment of β-arrestins to the AT1R by Ang-(1-7) leads to activation, we monitored the agonist-promoted change in the intramolecular BRET.
(§6) HEK293T cells were cultured in DMEM supplemented with 10% heat-inactivated fetal bovine serum and 100 U/mL penicillin/streptomycin at 37 °C under 5% CO2. […]
as §4

[6] = target: T1, AT1R; assay: ERK1/2 phosphorylation by Western blotting in cells transiently expressing the AT1R; type: cell-based; settings: 1 μM, 2-30 minutes, compared to AngII
Description: Cells transiently expressing the AT1R were seeded on 6-well plates in fully supplemented DMEM and kept at 37 °C. […] Cells were lysed with lysis buffer consisting of 10 mM Tris-HCl, pH 7.5, 150 mM NaCl, 1 mM EDTA, 1mM EGTA, 0.1% SDS, 1% Nonidet P-40 and the following protease inhibitors: 2 mM PMSF, 100 µg/mL SBTI, 10 µg/mL leupeptin, 100 µg/mL aprotinin, 10 mM benzamidin and 2 mM sodium orthovanadate. Following homogenization at 4 °C, during 30 minutes, cellular lysates were centrifuged for 15 minutes (18,000 × g) at 4 °C and total protein from the supernatants was quantified by the Bradford method (Bio-Rad, Hercules, CA). After that, 50 µg of total protein were resolved in SDS-PAGE, transferred to nitrocellulose membranes and Western blotting was performed against total ERK (tERK) and phosphorylated ERK (pERK) (both antibodies from Santa Cruz Biotechnology, Santa Cruz, CA, USA; and molecular size markers from ThermoFisher Scientific, Catalog Number 26610). Blots were captured with ImageQuant 350 (GE Healthcare, Piscataway, NJ, USA). Densitometric values obtained after analyses with ImageJ program (http://rsb.info.nhi.gov/ij/) were used to calculate a ratio pERK/tERK, and corresponding results were plotted using GraphPad software (GraphPad, San Diego, CA) as fold of increase over the basal value obtained with vehicle-treated control.

[7] = target: T1, AT1R; assay: Intracellular calcium mobilization assay (FLIPR Calcium 5) in HEK293T cells expressing AT1R; type: cell-based
Description: Cells were seeded in 100-mm dishes and 48 hours before the experiments, transiently transfected with the AT1R (alone or in combination with BRET-based biosensors). Transient transfections were performed using 25 kDa linear polyethylenimine (PEI – Polysciences, Warrington, PA, USA) at a ratio of 3:1 PEI/DNA. The total amount of transfected DNA was kept constant (10 μg/dish) by the addition of salmon sperm DNA. Twenty-four hours after transfection, HEK293T cells were washed once with PBS, detached, and seeded in 96-well clear-bottom black plates (Cellstar – Greiner Bio-One, Monroe, NC, USA) precoated with poly-L-lysine (Sigma-Aldrich, St. Louis, MO, USA). Cells were cultured in supplemented DMEM without phenol red (Gibco) at a density of 50,000 cells/well for an additional 24-hour period. […] To provide a baseline level, fluorescence was recorded every 2 seconds during 16 seconds. Following agonist stimulation, fluorescence continued to be recorded every 2 seconds for 90 seconds.

[8] = target: T1, AT1R; assay: Intramolecular BRET assay of β-arrestin 2 conformational changes (RLucII-β-arr2-GFP10); type: cell-based
Description: as §5, §6, §4

[9] = tested on: isoproterenol-induced cardiac hypertrophy; assay: End-diastolic pressure (EDP) in rats with isoproterenol-induced cardiac hypertrophy; type: in vivo, Wistar rats; settings: 24 μg/kg per hour, osmotic mini-pump, 7 days, concomitantly with isoproterenol
Description: as §3
Rats receiving Iso were randomly submitted to treatment for 7 days with either vehicle, Ang-(1-7) [24 μg/kg per hour, via ALZET® osmotic minipumps (Durect, Cupertino, CA, USA)], Ang-(1-7) plus Losartan (10 mg/kg per day orally), Ang-(1-7) plus A779 (744 μg/kg per day i.p.), or Ang-(1-7) plus Losartan plus A779 (same doses as described). […]
Rats were anesthetized with isoflurane (5% for induction and 2–2.5% to maintain anesthesia). […] After stabilization, signals were continuously recorded using a pressure-volume conductance system (MPVS, Millar Instruments) connected to a Power Lab/4SP (ADI Instruments, Sydney, NSW, Australia) feeding the digital signal to an […].

[10] = target: T1, AT1R; assay: Competition binding assay against [3H]AngII in whole HEK293T cells transiently expressing the AT1R
Description: as §1
Binding assays were performed in whole HEK293T cells at 48 hours after transfection. Twenty-four hours before the experiment, transfected cells were transferred to 24-well plates, treated with poly-L-lysine, and then incubated overnight at 37 °C, in a 5% CO2 environment. […] Samples were collected and mixed with 3 mL of scintillation liquid, and radioactivity was measured using a Liquid Scintillation Counter (Packard Tri-Carb 2100TR – PerkinElmer).

[11] = tested on: AT1R; assay: BRET assay of β-arrestin 1 recruitment to AT1R-GFP (β-arr1-RLucII); type: cell-based; settings: for β-arr1 recruitment Emax (%): percentage of the maximum values obtained for AngII
Description: as §1, §2

CC[C@H](C)[C@H](NC(=O)[C@H](Cc1ccc(O)cc1)NC(=O)[C@@H](NC(=O)[C@H](CCCNC(=N)N)NC(=O)[C@@H](N)CC(=O)O)C(C)C)C(=O)N[C@@H](Cc1c[nH]cn1)C(=O)N1CCC[C@H]1C(=O)O [Ang-(1-7), Asp-Arg-Val-Tyr-Ile-His-Pro]
β-arr2 recruitment pEC50 ([1]; BRET, mean ± SEM): 6.56 ± 0.09 | β-arr2 recruitment Emax (%) [1]: 87.7% | β-arr2 recruitment Emax (%) ([1]; listed as Ang1-7): ~90% | cardiac hypertrophy (left ventricular wall thickness) [2]: partially blocked the development of cardiac hypertrophy | heart weight/body weight (HW/BW) ratio [2]: partially blocked | Gi3 activation, in words [3]: did not trigger Gi3 activation | Emax ([4]; HEK-293T): 12.8% | Gq activation (separation of Gαq-RLucII from Gγ1-GFP10), in words ([4]; any of the concentrations tested, HEK293T cells expressing AT1R): did not promote the separation of Gαq-RLucII from Gγ1-GFP10 | EC50 ([5]; intramolecular BRET, mean ± SEM, read-out: β-arr1 conf. changes pEC50 (converted)): 245 nM | Emax ([5]; read-out: β-arr1 conf. changes Emax (%)): 69.1% | ERK1/2 phosphorylation [6]: partial agonist resulting in lower and more transient activation | Emax ([7]; HEK-293T, read-out: Ca2+ mobilization Emax (%)): 24.8% | intracellular Ca2+ mobilization, in words ([7]; concentration-response curve, HEK293T cells expressing AT1R): only a weak increase in intracellular Ca^2+ levels | EC50 ([8]; intramolecular BRET, mean ± SEM, read-out: β-arr2 conf. changes pEC50 (converted)): 1380 nM | Emax ([8]; read-out: β-arr2 conf. changes Emax (%)): 64.4% | end-diastolic pressure (EDP) [9]: completely prevented the increase in EDP | Ki ([10]; competition against 0.5 nM [3H]AngII, HEK293T cells expressing AT1R, mean ± SEM, read-out: Binding pKi (converted)): 219 nM | pKi ([10]; competition binding against [3H]AngII, read-out: affinity for the AT1R): ~6.70 | β-arr1 recruitment pEC50 ([11]; BRET, mean ± SEM): 6.38 ± 0.14 | β-arr1 recruitment Emax (%) [11]: 67.8% | β-arr1 recruitment Emax (%) ([11]; listed as Ang1-7): ~70%
